# According to BindingDB's records for doi:10.1021/jm0004906 (Glaxosmithkline, 2001):
# Target: T1, Gag-Pol polyprotein [588-1027]/[588-1147] (Human immunodeficiency virus 1, UniProt P04585)
# T1 construct: 588-1027; 588-1147
# Test: HIV-1 RT Assay
# Conditions: not given
# Excerpt: The IC50 of reverse transcriptase is the concentration that inhibits 50% of recombinant HIV-1 RT RNA-directed DNA polymerase activity in vitro.
row,SMILES,IC50
1,N#Cc1c(N)cccc1[S+]([O-])c1cccc(C(F)(F)F)c1 (stereo not given) [2-amino-6-{[3-(trifluoromethyl)benzene]sulfinyl}benzonitrile],> 22 µM
2,Cc1ccc([S+]([O-])c2cccc(N)c2C#N)cc1 (stereo not given) [2-amino-6-[(4-methylbenzene)sulfinyl]benzonitrile],> 21 µM
3,N#Cc1c(N)cccc1[S+]([O-])c1ccc(Br)cc1 (stereo not given) [2-amino-6-[(4-bromobenzene)sulfinyl]benzonitrile],> 21 µM
4,N#Cc1cccc([S+]([O-])c2cccc(N)c2C#N)c1 (stereo not given) [2-amino-6-[(3-cyanobenzene)sulfinyl]benzonitrile],> 15 µM
5,COc1ccc([S+]([O-])c2cccc(N)c2C#N)cc1 (stereo not given) [2-amino-6-[(4-methoxybenzene)sulfinyl]benzonitrile],> 20 µM
6,Cc1ccccc1[S+]([O-])c1cccc(N)c1C#N (stereo not given) [2-amino-6-[(2-methylbenzene)sulfinyl]benzonitrile],> 21 µM
7,N#Cc1ccc(S(=O)(=O)c2cccc(N)c2C#N)cc1 [2-amino-6-[(4-cyanobenzene)sulfonyl]benzonitrile],> 18 µM
8,N#Cc1ccc([S+]([O-])c2cccc(N)c2C#N)cc1 (stereo not given) [2-amino-6-[(4-cyanobenzene)sulfinyl]benzonitrile],> 23 µM
9,N#Cc1c(N)cccc1S(=O)(=O)c1ccc(Br)cc1 [2-amino-6-[(4-bromobenzene)sulfonyl]benzonitrile],> 14 µM
10,N#Cc1c(N)cccc1[S+]([O-])c1ccccc1Br (stereo not given) [2-amino-6-[(2-bromobenzene)sulfinyl]benzonitrile],> 19 µM

# Same assay, conditions: pH 8
row,SMILES,IC50
1,O=[N+]([O-])c1ccccc1Sc1ccccc1[N+](=O)[O-] [Bisnitrophenylsulfide],> 20 µM
2,N#Cc1c(N)cccc1Sc1ccccc1Br [2-amino-6-[(2-bromophenyl)sulfanyl]benzonitrile],> 21 µM
3,COc1ccc(Sc2cccc(N)c2C#N)cc1 [2-amino-6-[(4-methoxyphenyl)sulfanyl]benzonitrile],> 17 µM
4,N#Cc1c(N)cccc1Sc1cccc(N)c1 [2-amino-6-[(3-aminophenyl)sulfanyl]benzonitrile],> 23 µM
5,N#Cc1ccc(Sc2cccc(N)c2C#N)cc1 [2-amino-6-[(4-cyanophenyl)sulfanyl]benzonitrile],> 19 µM
